# Structures can show the parent of a compound that is named as a salt. Where two headings read alike, the source gives them in different places.
# How the values were obtained:
# [1] = system: Mouse; conditions: in vivo; for Loss of Righting Reflex ED min.: ip
# [2] = system: Mouse; test: anticonvulsant activity, Maximal Electroshock Test (MES); type: in vivo; conditions: for ED50: ip, Mouse, Maximal Electroshock Test
# Source text: | ^(a) Maximal Electroshock Test (Woodbury and Davenport, Arch. Int. | Pharmacodyn. Ther., 92, 97-107 (1952).
# [3] = acute oral lethality (LD50) in rat; conditions: in vivo, p.o.
# [4] = system: Rat; conditions: in vivo; for Muscle Tone Decrease ED min.: ip
# [5] = antagonism of apomorphine-induced aggression (antiaggressive activity); conditions: rat, in vivo, po
# [6] = system: apomorphine-induced aggression; test: as above; conditions: for ED50: Rattus norvegicus
# [7] = system: muricidal behaviour; test: inhibition of instinctive muricidal (mouse killing) behaviour; type: in vivo, rat; conditions: rats
# [8] = system: apomorphine induced stereotyped behaviour; test: apomorphine induced stereotyped behaviour; type: in vivo; conditions: rat; in words
# [9] = system: locomotor activity of d-amphetamine; test: potentiation of locomotor activity of d-amphetamine; type: in vivo; conditions: in words
# [10] = side-effects such as sedation, catalepsy and extrapyramidal dysfunction; type: in vivo; conditions: in words
# [11] = system: anti-cholinergic activity; test: anti-cholinergic activity; conditions: in words
# [12] = system: anti-histamine activity; test: anti-histamine activity; conditions: in words
# [13] = acute lethality (LD50) in male mice; conditions: mouse, in vivo
# [14] = po, read-out: Antiaggressive ED50
structure (smiles),measurement,setting,value
O=C1NC(=O)C(c2ccccc2)(c2ccccc2)N1 [Phenytoin],Loss of Righting Reflex ED min.,[1],> 100 mg/kg
same,ED50,[2],8.5 mg/kg
same,"anticonvulsant activity relative to the ""Carbazole"" (cpd. A)",[2]; phenytoin vs cpd. A,5 times
same,anticonvulsant activity relative to cpd. B,[2]; phenytoin vs cpd. B,~2.5 times
"CN1CCN(CCCn2c3ccccc3c3ccccc32)CC1 [compound B, 9-[3-(4-methylpiperazino)propyl]carbazole, reference compound]",LD50,[3],830 mg/kg
same,Loss of Righting Reflex ED min.,[1],50 mg/kg
same,"dose at which muscle tone decrease is observed relative to the ""Carbazole""",[4],much lower dose
same,Muscle Tone Decrease ED min.,[4],50 mg/kg
same,level of anticonvulsant activity,[2]; assessment in words,marginal
same,ED50,[2],20 mg/kg
same,selectivity ratio,[5],11
same,ED50,[6]; [14],75 mg/kg
"C[C@@H]1CN(CCCn2c3ccccc3c3ccccc32)C[C@H](C)N1 [Carbazole, 9-[3-(3,5-cis-dimethylpiperazino)propyl]carbazole]",suppression of instinctive muricidal (mouse killing) behaviour,[7]; in words,suppress the instinctive muricidal (i.e. mouse killing) behaviour
same,minimum dose for loss of righting reflex relative to compound B,[1],about three times that of compound B
same,"anticonvulsant activity of the ""Carbazole"" relative to cpd. B",[2]; in words,less than half the anticonvulsant activity of cpd. B
same,antagonism of apomorphine induced stereotyped behaviour,[8],failure to antagonise apomorphine induced stereotyped behaviour
same,potentiation of the locomotor activity of d-amphetamine,[9],potentiates the locomotor activity of d-amphetamine
same,"undesirable side-effects such as sedation, catalepsy and extrapyramidal dysfunction",[10],substantially free from undesirable side-effects
same,anti-cholinergic activity relative to phenothiazines,[11],significantly less
same,anti-histamine activity relative to phenothiazines,[12],significantly less
same,"potency of anti-aggressive and anti-psychotic properties relative to non-methylated, 4-methyl, 3,4,5-trimethyl and 3,5-trans-dimethyl compounds",[6]; comparison in words,"more potent than either the corresponding non-methylated compound or any of the analogous 4-methyl, 3,4,5-trimethyl or 3,5-trans-dimethyl compounds"
same,antagonism of apomorphine-induced aggression,"[6]; rat, in words",antagonised apomorphine-induced aggression
"C[C@@H]1CN(CCCn2c3ccccc3c3ccccc32)C[C@H](C)N1 [Example 1, 9-[3-(3,5-cis-Dimethylpiperazino)propyl]carbazole dihydrochloride hemihydrate]",ED50,"[7]; Rattus norvegicus, ip, intraperitoneal, read-out: ED50 (anti-muricidal)",15 mg/kg
same,LD50,"[13]; intravenous, read-out: LD50 intravenous",31 mg/kg
same,LD50,"[13]; oral, read-out: LD50 oral",977 mg/kg
same,LD50,[3],957 mg/kg
same,Loss of Righting Reflex ED min.,[1],160 mg/kg
same,Muscle Tone Decrease ED min.,[4],125 mg/kg
same,ED50,[2],43 mg/kg
same,selectivity ratio,[5],20
same,ED50,"[6]; ip, read-out: ED50 (anti-aggressive)",12.5 mg/kg
same,ED50,[6]; [14],48 mg/kg

# Source: patent US4379160A, “Carbazole compounds and medicinal use thereof” (priority 1978, dated 1983)
